PMC10079235 (PLOS Neglected Tropical Diseases, 2023)
Where two headings read alike, the source gives them in different places.

How the values were obtained:
HCT-8/NC(PTX) cells = assay: MTS cytotoxicity (drug tolerance) assay; conditions: NC(PTX) cells, after selection by PTX
Protocol: (§1) Host cell drug tolerance to specified inhibitors was evaluated by 3-(4,5-dimethylthiazol-2-yl)-5-(3-carboxymethoxyphenyl)-2-(4-sulfophenyl)-2H-tetrazolium (MTS) assay. WT and transgenic host cells were seeded in 96-well plates (10,000 cells/well) and cultured for 24 h, followed by the addition of specified compounds at serially diluted concentrations and continued culture for 41 h. After 3 washes with serum-free medium, MTS solution (Saint-Bio, Shanghai, China) was added into the plates (20 μL/well) and incubated at 37°C for 2 h. Optical density at 490 nm (OD490) was measured using a Synergy LX multi-mode reader (BioTek, Winooski, VT). Drug tolerance was indicated by half-maximal cytotoxic concentrations (TC50 values) calculated by nonlinear regression using 4PL model. Selectivity index (SI) for each compound was determined by the ratio between TC50 and EC50 values (SI = TC50/EC50).
(§2) Surviving cells were allowed to recover in drug-free medium for 3–5 d to near confluence (round 1). The selection/recovery cycle were repeated once (round 2). […] The resulting cell lines after PTX or NTZ selection were designated as WT(PTX), NC(PTX) and MDR1(PTX), or WT(NTZ), NC(NTZ) and MDR1(NTZ), respectively (Tables 1 and S2).

HCT-8/MDR1(NTZ) cells = assay: MTS cytotoxicity (drug tolerance) assay; conditions: human, 41 h
Protocol: as §1, §2

HCT-8/WT(PTX) cells = assay: MTS cytotoxicity (drug tolerance) assay; conditions: WT(PTX) cells, after selection by PTX
Protocol: as §1, §2

HCT-8/MDR1 cells = conditions: human, 41 h
HCT-8/NC cells = assay: MTS cytotoxicity (drug tolerance) assay; conditions: no drug selection
HCT-8/MDR1(PTX) cells = system: HCT-8/MDR1(PTX) cells
Protocol: as §1, §2

Cryptosporidium parvum = assay: Anti-cryptosporidial efficacy assay (44-h infection/qRT-PCR); conditions: for EC50: Cryptosporidium parvum; for On-target (Eon) rate at EC50: Eq 2; for Eoff, proportion of off-parasite-target effect / Eon, proportion of on-parasite-target effect: MDR1(PTX) vs. NC model, Eq 3 and 4
HCT-8/WT(NTZ) cells = assay: MTS cytotoxicity (drug tolerance) assay; conditions: WT(NTZ) cells, after selection by NTZ
Protocol: as §1
(§3) Surviving cells were allowed to recover in drug-free medium for 3–5 d to near confluence (round 1). The selection/recovery cycle were repeated once (round 2). […] Finally, all cells were cultured at the final selection concentrations of PTX or NTZ for ≥7 d, followed by culture in drug-free medium for 14 d. At this time point, cells were used for cytotoxicity and efficacy assays or cryopreserved in a liquid nitrogen tank. The resulting cell lines after PTX or NTZ selection were designated as WT(PTX), NC(PTX) and MDR1(PTX), or WT(NTZ), NC(NTZ) and MDR1(NTZ), respectively (Tables 1 and S2).

HCT-8/NC(NTZ) cells = assay: MTS cytotoxicity (drug tolerance) assay; conditions: NC(NTZ) cells, after selection by NTZ
Protocol: as §1, §3

HCT-8/WT cells = assay: MTS cytotoxicity (drug tolerance) assay; conditions: WT cells, no drug selection; MTS assay
Protocol: as §1

HCT-8 cells = assay: MTS cytotoxicity assay with MDR1 inhibitor elacridar, several HCT-8 derived cell lines; conditions: 300 nM, NC, MDR1, NC(PTX), NC(NTZ)
Protocol: If the increase of tolerance to a specified inhibitor in host cells was truly mediated by MDR1, specific inhibition of MDR1 would restore the sensitivity of the host cells to the inhibitor (as indicated by TC50). Additionally, inhibition of MDR1 would not affect the anti-cryptosporidial efficacy (EC50) if the drug that acted only on the parasite target, or partially affect the efficacy (EC50) if the drug that also acted on host cell target. This notion was tested using elacridar, a third generation of MDR1 inhibitor [18, 23–25]. […] We then examined the effect of elacridar on the cytotoxicity and anti-cryptosporidial efficacies of the six inhibitors in the range of TC50 or EC50 concentrations.
Host cell drug tolerance to specified inhibitors was evaluated by 3-(4,5-dimethylthiazol-2-yl)-5-(3-carboxymethoxyphenyl)-2-(4-sulfophenyl)-2H-tetrazolium (MTS) assay. […] Optical density at 490 nm (OD490) was measured using a Synergy LX multi-mode reader (BioTek, Winooski, VT). Drug tolerance was indicated by half-maximal cytotoxic concentrations (TC50 values) calculated by nonlinear regression using 4PL model. Selectivity index (SI) for each compound was determined by the ratio between TC50 and EC50 values (SI = TC50/EC50).

MDR1 = system: MDR1; design: method as in PMID 34648615; conditions: 300 nM ref 15; cited from earlier work

For `CC[C@]1(O)C[C@H]2CN(CCc3c([nH]c4ccccc34)[C@@](C(=O)OC)(c3cc4c(cc3OC)N(C=O)[C@H]3[C@@](O)(C(=O)OC)[C@H](OC(C)=O)[C@]5(CC)C=CCN6CC[C@]43[C@@H]65)C2)C1` [Vincristine, Vincristine sulphate], the TC50 (HCT-8/NC(PTX) cells) was 7.29 µM, the TC50 (HCT-8/MDR1(NTZ) cells) was 12.38 µM and the TC50 (HCT-8/WT(PTX) cells) was 6.96 µM. The TC50 (HCT-8/MDR1 cells) was 12.61 µM, the TC50 (HCT-8/NC cells) was 7.15 µM and the TC50 (HCT-8/MDR1(PTX) cells; MDR1(PTX) cells, after selection by PTX) was 21.51 µM. For the same compound, the “Pct change of TC50 (vs NC)” value (HCT-8/MDR1(PTX) cells; MDR1(PTX) vs NC cells) was 200.8%, the EC50 (Cryptosporidium parvum; MDR1, read-out: Antiparasitic efficacy (EC50), C. parvum cultured in MDR1(PTX) host cells) was 2770 nM and the EC50 (Cryptosporidium parvum; read-out: Antiparasitic efficacy (EC50), C. parvum cultured in NC host cells) was 1580 nM. For the same compound, the EC50 (Cryptosporidium parvum; read-out: Antiparasitic efficacy (EC50), C. parvum cultured in WT host cells) was 1640 nM, the “On-target (Eon) rate at EC50” value (Cryptosporidium parvum; MDR1(PTX) cell model) was 62.5% and the “On-target (Eon) rate at EC50” value (Cryptosporidium parvum; MDR1(PTX) cell model, listed as VCT) was 62.5%. For the same compound, the “Off-target (Eoff) rate at EC50” value (Cryptosporidium parvum; MDR1(PTX) cell model, from Pct changes of EC50 and TC50 (Eq 1)) was 37.5%, the “Action on parasite target (on-target) conclusion” value (Cryptosporidium parvum; MDR1-transgenic host cell model) was “partially on-target” and the “Eoff, proportion of off-parasite-target effect” value (from here on “Eoff, proportion”) (Cryptosporidium parvum; at EC10) was 38.10%. For the same compound, the “Eon, proportion of on-parasite-target effect” value (shortened to “Eon, proportion”) (Cryptosporidium parvum; at EC10) was 61.90%, the “Eon, proportion” value (Cryptosporidium parvum; at EC10, listed as VCT) was 61.9% and the “Eoff, proportion” value (Cryptosporidium parvum; at EC20) was 38.00%. For the same compound, the “Eon, proportion” value (Cryptosporidium parvum; at EC20) was 62.00%, the “Eoff, proportion” value (Cryptosporidium parvum; at EC30) was 37.90% and the “Eon, proportion” value (Cryptosporidium parvum; at EC30) was 62.10%. The “Eoff, proportion” value (Cryptosporidium parvum; at EC40) was 37.80%, the “Eon, proportion” value (Cryptosporidium parvum; at EC40) was 62.20% and the “Eoff, proportion” value (Cryptosporidium parvum; at EC50) was 37.7%. For the same compound, the “Eon, proportion” value (Cryptosporidium parvum; at EC50) was 62.3%, the “Eoff, proportion” value (Cryptosporidium parvum; at EC60) was 37.60% and the “Eon, proportion” value (Cryptosporidium parvum; at EC60) was 62.40%. For the same compound, the “Eoff, proportion” value (Cryptosporidium parvum; at EC70) was 37.50%, the “Eon, proportion” value (Cryptosporidium parvum; at EC70) was 62.50% and the “Eoff, proportion” value (Cryptosporidium parvum; at EC80) was 37.30%. For the same compound, the “Eon, proportion” value (Cryptosporidium parvum; at EC80) was 62.70%, the “Eoff, proportion” value (Cryptosporidium parvum; at EC90) was 37.10% and the “Eon, proportion” value (Cryptosporidium parvum; at EC90) was 62.90%. The “Eon, proportion” value (Cryptosporidium parvum; at EC90, listed as VCT) was 62.9%, the TC50 (HCT-8/WT(NTZ) cells) was 7.04 µM and the TC50 (HCT-8/NC(NTZ) cells) was 6.87 µM. The TC50 (HCT-8/WT cells) was 6.72 µM.

In the case of `COc1cc2c(cc1OC)CN(CCc1ccc(NC(=O)c3cccc4c(=O)c5cccc(OC)c5[nH]c34)cc1)CC2` [elacridar], the “Effect on growth of host cells” value (HCT-8 cells) is listed as “no or little effect”, the “Inhibition on the activity of MDR1” value (MDR1) is listed as “strong inhibition” and the “Effect on growth of C. parvum” value (Cryptosporidium parvum; 300 nM, cultured with NC, MDR1(PTX) and MDR1(NTZ) cells) is listed as “no or little effect”.
